A word on the inhibition: it is the drop in the measured response relative to a control, in per cent. The term Ki denotes a dissociation constant, usually derived from enzyme kinetics or from competition with a known ligand. Higher therefore signals lower affinity.

The values that follow come from patent US7868022B2, “2-amino-quinoline derivatives useful as inhibitors of β-secretase (BACE)” (Janssen Pharmaceutica NV, priority 2006, dated 2011).

Experiment [1] has as its target T1, β-secretase (BACE) (Homo sapiens, UniProt P56817).
T1 construct: purchased Panvera
As to the kind of experiment: In Vitro BACE FS1 % Inhibition Assay (Example 15). Format: biochemical. The settings on record: FS1 substrate; for inhibition at 0.3 µM: 0.3 μM compound; for inhibition at 1 µM: 1 μM compound; for inhibition at 3 µM: 3 μM compound. The method, then:
(§1) The following reagents were used in this assay: sodium acetate, PEG8000 (Sigma), DMSO, HEPES, FS1 substrate [R(AedensE)[…]-(DabcylK)R], β-secretase (BACE) (Panvera), and 96-well plate (HE microplate, Molecular Devices).
(§2) The following assay buffers were prepared and used in this assay: (1) enzyme assay buffer (0.05 M sodium acetate, pH5, 0.1% PEG8000 (w/v)), (2) substrate assay buffer (0.05 M sodium acetate, pH5), and (3) compound vehicle (30% DMSO in 50 mM HEPES, pH 7.4).
(§3) The FS1-substrate stock solution was prepared in DMSO as a 10 mg/mL solution. The FS1-substrate working solution was prepared by diluting the 10 mg/mL stock solution with substrate assay buffer to a final concentration of 300 μg/mL. The β-secretase (BACE) working solution was prepared by diluting a 0.83 mg/mL BACE stock solution with enzyme assay buffer to a final concentration of 4 μg/mL.
Test compounds were dissolved in DMSO to 10 mM. Compounds were further diluted in vehicle to various concentrations in the range of 405 μM to 4.05 μM (13.5× final compound concentration in screening plate).
The screening procedure for this assay was as follows: 15 μL of BACE working solution was pipetted into each well of a 96-well plate. To each well was then pipetted 2 μL of test compound at the selected concentration. Test compound and BACE were then mixed with a pipettor and incubated for 20 min at room temperature. To each well was then added 10 μL of the FS1 substrate working solution. The plates were then incubated for 1 hour at room temperature. The fluorescence for each well was then measured on an LJL analyst (Ex 360 nm/Em 530 nm).
The procedure for the blank (negative control) was as follows. 15 μL of assay buffer was pipetted into each well to be used as a blank control. To each well was then added 2 μL of vehicle and 10 μL of FS1-substrate working solution. The plates were then incubated for 1 hour at room temperature. The fluorescence was measured on an LJL analyst (Ex 360 nm/Em 530 nm).
The procedure for the positive control was as follows: 15 μL of BACE working solution was pipetted into each well to be used as a positive control. To each well was then pipetted 2 μL of vehicle. Vehicle and BACE were then mixed with a pipettor and incubated for 20 min at room temperature. To each well was then added 10 μL of the FS1 substrate working solution. The plates were then incubated for 1 hour at room temperature. The fluorescence (Fl) was then measured on an LJL analyst (Ex 360 nm/Em 530 nm).
For test compounds, % inhibition was determined at each concentration as follows:
% Inhibition values of less than 30% were indistinguishable from control and are listed as ≦30% in the Table below. % Inhibition values greater than 100% were indistinguishable from 100% within the error of the measurement.

Experiment [2] addresses T1, β-secretase (BACE). The experiment is described as follows: In Vitro BACE Assay, Ki (Example 16). The settings on record: FS1 substrate, pH5. Format: biochemical. The method, then: as §1, §2, §3
Test compounds were dissolved in DMSO at 10 mM.
The procedure for this assay was as follows: 15 μL of BACE working solution was pipetted into each well of a 96-well plate. To each well was then pipetted 2 μL of test compound at the selected concentration. Test compound and BACE were then mixed with a pipettor and incubated for 20 min at room temperature. […] The fluorescence for each well was then measured on a Polarstar fluorometer (Ex 390 nm/Em 520 nm) for 20 min at room temperature, reading fluorescence at 1 min intervals.
The procedure for the positive control was as follows: 15 μL of BACE working solution was pipetted into each well to be used as a positive control. […] The fluorescence was then measured on a Polarstar fluorometer (Ex 390 nm/Em 520 nm) for 20 min at room temperature, reading fluorescence at 1 min intervals.
For test compounds, Ki inhibition was determined as follows: For each compound concentration and positive control, rate of cleavage of substrate (Vi, where i=compound concentration in μM) was determined as Δ Fluorescence/Δ time (min). […] The Ki was then determined by fitting the following equation to the graph of [I] vs Vi Y=aVmax/(50+24*(1+X/Ki)),

T1 sequence (P56817 46-501): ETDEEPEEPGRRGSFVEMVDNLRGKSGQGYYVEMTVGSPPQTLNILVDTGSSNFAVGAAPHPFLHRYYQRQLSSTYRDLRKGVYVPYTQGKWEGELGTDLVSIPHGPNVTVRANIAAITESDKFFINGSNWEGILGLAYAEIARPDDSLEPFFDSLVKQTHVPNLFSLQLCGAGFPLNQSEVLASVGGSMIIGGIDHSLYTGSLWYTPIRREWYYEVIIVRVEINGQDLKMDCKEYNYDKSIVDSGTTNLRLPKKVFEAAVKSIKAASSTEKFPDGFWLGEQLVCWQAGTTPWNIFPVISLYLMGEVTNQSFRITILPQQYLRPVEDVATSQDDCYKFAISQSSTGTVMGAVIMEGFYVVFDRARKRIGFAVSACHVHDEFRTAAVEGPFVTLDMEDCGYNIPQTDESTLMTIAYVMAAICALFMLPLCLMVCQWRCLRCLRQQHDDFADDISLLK

For `Nc1nc2ccc(Oc3ccccc3)cc2cc1CCC(=O)NC1C2CC3CC(C2)CC1C3` (stereo not drawn) [compound 2], at β-secretase (BACE) [1], the inhibition at 0.3 µM came to 45%, the inhibition at 1 µM was 78% and the inhibition at 3 µM was determined as 107%. For the same molecule, the Ki on β-secretase (BACE) [2] worked out at 230 nM.
On the same counts, the results for `Nc1nc2ccc(Oc3ccccc3)cc2cc1C(CCC(=O)NC1C2CC3CC(C2)CC1C3)C1CCCCC1` (stereo not drawn) [compound 15] are 43%, 58%, 78% and 280 nM.
With `Nc1nc2ccc(Oc3ccccc3)cc2cc1C(CCC(=O)NC1C2CC3CC(C2)CC1C3)C1CCOCC1` (stereo not drawn) [compound 24], on β-secretase (BACE) [1], the inhibition at 0.3 µM is 56%, the inhibition at 1 µM amounted to 103% and the inhibition at 3 µM was found to be 132%. Also, on β-secretase (BACE) [2], the affinity corresponds to a Ki of 66 nM.
